From US9340600B2 (Indiana University Research and Technology Corporation, priority 2012, dated 2016)
*1 amine or outer side, *2 acyl side, *3 side chain or, on linkers, in order; H or OH if unused. Where a SMILES comes first, the peptide text is derived from it. Side-chain parts run from the residue outwards. [ ]: non-standard residue; d: D form. The star is where a group is joined. γGlu = O=C(O)[C@H](CCC(=O)[*:2])N[*:1]; Palmitoyl = CCCCCCCCCCCCCCCC(=O)*; Orn = NCCC[C@H](N)C(=O)O; Aib = CC(C)(N)C(=O)O

Assays:
[1] = target: T1, GIP receptor (Homo sapiens, UniProt P48546); details: cited from earlier work
T1 construct: expressed in transfected cells; host or cells: HEK293
T1 sequence (P48546 22-466): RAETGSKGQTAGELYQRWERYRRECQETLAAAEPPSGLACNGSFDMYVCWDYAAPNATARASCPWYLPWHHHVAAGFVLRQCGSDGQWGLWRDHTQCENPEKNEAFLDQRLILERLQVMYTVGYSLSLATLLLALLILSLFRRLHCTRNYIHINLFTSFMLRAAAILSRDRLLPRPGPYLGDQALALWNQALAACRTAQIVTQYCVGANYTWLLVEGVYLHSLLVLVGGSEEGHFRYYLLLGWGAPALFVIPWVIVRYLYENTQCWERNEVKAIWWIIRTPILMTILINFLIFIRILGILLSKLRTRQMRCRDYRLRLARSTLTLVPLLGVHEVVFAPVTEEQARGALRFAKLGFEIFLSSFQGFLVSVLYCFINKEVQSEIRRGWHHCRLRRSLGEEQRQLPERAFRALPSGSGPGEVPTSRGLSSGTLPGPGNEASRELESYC

[2] = target: T2, GLP-1 receptor (Homo sapiens, UniProt P43220); experiment: cAMP induction, firefly luciferase-based reporter assay in HEK293 cells co-transfected with GLP-1 receptor; assay type: cell-based; details: EC50 at GLP-1 Receptor, Table 3, analogs of SEQ ID NO: 18 varying at position 3
T2 construct: expressed in transfected cells; host or cells: HEK293
T2 sequence (P43220 24-463): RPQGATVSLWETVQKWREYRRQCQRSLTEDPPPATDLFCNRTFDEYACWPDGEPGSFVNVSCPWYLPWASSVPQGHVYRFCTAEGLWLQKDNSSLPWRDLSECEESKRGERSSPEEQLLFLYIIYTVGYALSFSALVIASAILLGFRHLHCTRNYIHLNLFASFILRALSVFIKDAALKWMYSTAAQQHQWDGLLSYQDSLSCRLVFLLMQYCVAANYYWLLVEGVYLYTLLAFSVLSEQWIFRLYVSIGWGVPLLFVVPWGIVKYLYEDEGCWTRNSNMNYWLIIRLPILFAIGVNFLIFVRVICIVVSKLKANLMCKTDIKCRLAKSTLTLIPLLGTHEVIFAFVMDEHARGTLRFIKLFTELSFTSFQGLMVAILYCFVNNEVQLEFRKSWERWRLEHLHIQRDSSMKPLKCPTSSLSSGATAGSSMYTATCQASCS
Text: (§1) This example describes an exemplary method of testing the biological activity of the peptides of the present disclosures, which method involves assaying cAMP synthesis.

[3] = target: T3, glucagon receptor (Homo sapiens, UniProt P47871); experiment: cAMP induction, firefly luciferase-based reporter assay in HEK293 cells co-transfected with glucagon receptor; assay type: cell-based; details: EC50 at Glucagon Receptor, Table 3, analogs of SEQ ID NO: 18 varying at position 3
T3 construct: expressed in transfected cells; host or cells: HEK293
T3 sequence (P47871 26-477): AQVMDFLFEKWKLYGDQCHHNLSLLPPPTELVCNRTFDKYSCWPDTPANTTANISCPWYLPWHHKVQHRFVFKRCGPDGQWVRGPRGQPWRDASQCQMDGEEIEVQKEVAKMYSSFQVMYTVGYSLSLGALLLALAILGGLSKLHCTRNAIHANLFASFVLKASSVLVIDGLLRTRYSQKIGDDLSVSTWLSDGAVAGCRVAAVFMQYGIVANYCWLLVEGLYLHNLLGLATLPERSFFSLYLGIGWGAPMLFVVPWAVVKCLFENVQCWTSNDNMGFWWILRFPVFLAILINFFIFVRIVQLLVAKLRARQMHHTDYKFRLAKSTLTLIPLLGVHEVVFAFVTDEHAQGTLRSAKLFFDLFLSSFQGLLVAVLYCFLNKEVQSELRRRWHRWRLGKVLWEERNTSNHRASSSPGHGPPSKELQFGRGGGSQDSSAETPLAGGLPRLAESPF
Text: as §1

[4] = target: T1, GIP receptor; experiment: cAMP induction, firefly luciferase-based reporter assay in HEK293 cells co-transfected with GIP receptor; assay type: cell-based; details: EC50 at GIP Receptor, Table 3, analogs of SEQ ID NO: 18 varying at position 3
Text: as §1

| Compound | activation of the GIP receptor [1] | activity of native GIP at the GIP receptor ([1]; relative to native GIP) [%] | EC50 [2] [nM] | EC50 [3] [nM] | EC50 [4] [nM] |
| --- | --- | --- | --- | --- | --- |
| Native glucagon: native human glucagon (SEQ ID NO: 1) | does not activate the GIP receptor | ~0 |  |  |  |
| CCCCCCCCCCCCCCCC(=O)N[C@@H](CCC(=O)NCCCC[C@H](NC(=O)[C@H](CC(=O)O)NC(=O)[C@H](CO)NC(=O)[C@@H](NC(=O)[C@H](Cc1ccccc1)NC(=O)[C@@H](NC(=O)CNC(=O)[C@H](CCCNC(C)=O)NC(=O)C(C)(C)NC(=O)[C@@H](N)Cc1c[nH]cn1)[C@@H](C)O)[C@@H](C)O)C(=O)N[C@@H](CO)C(=O)N[C@@H](CCCCN)C(=O)N[C@@H](Cc1ccc(O)cc1)C(=O)N[C@@H](CC(C)C)C(=O)N[C@@H](CCC(=O)O)C(=O)N[C@@H](CCC(=O)O)C(=O)N[C@@H](CCCNC(=N)N)C(=O)N[C@@H](C)C(=O)N[C@@H](C)C(=O)N[C@@H](CCC(N)=O)C(=O)N[C@@H](CCC(=O)O)C(=O)N[C@@H](Cc1ccccc1)C(=O)N[C@H](C(=O)N[C@@H](CCC(N)=O)C(=O)N[C@@H](Cc1c[nH]c2ccccc12)C(=O)N[C@@H](CC(C)C)C(=O)N[C@@H](CC(C)C)C(=O)N[C@@H](CCC(=O)O)C(=O)NCC(=O)NCC(=O)N1CCC[C@H]1C(=O)N[C@@H](CO)C(=O)N[C@@H](CO)C(=O)NCC(=O)N[C@@H](C)C(=O)N1CCC[C@H]1C(=O)N1CCC[C@H]1C(=O)N1CCC[C@H]1C(=O)N[C@@H](CO)C(N)=O)C(C)C)C(=O)O [compound 34] (H-H[Aib][Orn](Ac)GTFTSDK([γGlu-Palmitoyl])SKYLEERAAQEFVQWLLEGGPSSGAPPPS-NH2; N-terminus assumed) |  |  | 0.001 | 0.368 | 0.02 |
